Source: BindingDB's records for doi:10.1021/jm00128a026 (Roche Research Center, 1989)

Tests used:
[1] = target: Platelet-activating factor receptor (Canis lupus familiaris); test: Inhibition of [3H]PAF binding to dog platelets.
[2] = target: Platelet-activating factor receptor (Canis lupus familiaris); test: Inhibition of [3H]PAF binding to dog platelets.; remark: listed apart in the source

`CCCC/C(=C\C=C\C(=O)N[C@H](C)CCCc1cccnc1)c1ccc(OC)cc1` showed an IC50 [1] of 14 nM.
With `COc1ccc(C(=C/C=C/C(=O)Nc2ccc(Cc3cccnc3)cc2)c2ccc(OC)cc2)cc1` the IC50 [1] was 250 nM.
For `COc1ccc(C(=C/C=C/C(=O)N[C@H](C)CCCc2cccnc2)c2ccc(OC)c(OC)c2)cc1OC`, the IC50 [1] was 50 nM.
Work on `COc1ccc(/C=C/C=C/C(=O)N[C@H](C)CCCc2cccnc2)cc1` yielded an IC50 [1] of 30 nM.
`COc1ccc(C(=C/C=C/C(=O)NCCOCc2cccnc2)c2ccc(OC)cc2)cc1` was tested, and the IC50 [2] was 250 nM.
`COc1ccc(C(=C/C=C/C(=O)N[C@@H](CCCc2cccnc2)C2CC2)c2ccc(OC)cc2)cc1` showed an IC50 [1] of 60 nM.
Compound `CCC/C(=C\C=C\C(=O)N[C@H](C)CCCc1cccnc1)c1ccc(OC)cc1` has an IC50 [1] of 50 nM.
For `CCC[C@H](CCCc1cccnc1)NC(=O)/C=C/C=C(c1ccc(OC)cc1)c1ccc(OC)cc1`, the IC50 [1] was over 1000 nM.
Compound `COc1ccc(/C(=C\C=C\C(=O)N[C@H](C)CCCc2cccnc2)C2CCCCC2)cc1` has an IC50 [1] of 20 nM.
Compound `COc1ccccc1C(=C/C=C/C(=O)NCCCCc1cccnc1)c1ccccc1OC` has an IC50 [1] of 40 nM.
`CCCC[C@H](CCCc1cccnc1)NC(=O)/C=C/C=C(c1ccc(OC)cc1)c1ccc(OC)cc1` was tested, and the IC50 [1] was over 1000 nM.
`COc1ccc(/C(=C/C=C/C(=O)N[C@H](C)CCCc2cccnc2)C2CCCCC2)cc1` was tested, and the IC50 [1] was 20 nM.
`CCCCC/C(=C/C=C/C(=O)N[C@H](C)CCCc1cccnc1)c1ccc(OC)cc1` was tested, and the IC50 [1] was 10 nM.
`COc1ccc(C(=C/C=C/C(=O)NC(C)CCCc2cccnc2C)c2ccc(OC)cc2)cc1` (stereo unspecified) showed an IC50 [2] of 30 nM.
Compound `Cc1ccc(C(=C/C=C/C(=O)N[C@H](C)CCCc2cccnc2)c2ccc(C)cc2)cc1` has an IC50 [1] of 250 nM.
`COc1cccc(/C(=C\C=C\C(=O)NCCCCc2cccnc2)c2cccc(F)c2)c1` showed an IC50 [1] of 25 nM.
For `COc1ccc(C(=C/C=C/C(=O)N[C@@H](CCCc2cccnc2)C2CCCC2)c2ccc(OC)cc2)cc1`, the IC50 [1] was over 1000 nM.
For `O=C(/C=C\C=C(c1ccccc1)c1ccccc1)NCCCCc1cccnc1`, the IC50 [1] was 400 nM.
Work on `O=C(C/C=C/C=C(c1ccccc1)c1ccccc1)NCCCCc1cccnc1` yielded an IC50 [1] of 55 nM.
`COc1cccc(C(=C/C=C/C(=O)NCCCCc2cccnc2)c2cccc(OC)c2)c1` was tested, and the IC50 [1] was 2 nM.
`COc1ccc(/C(C)=C/C=C/C(=O)N[C@H](C)CCCc2cccnc2)cc1` was tested, and the IC50 [2] was 25 nM.
Compound `O=C(CCC=C(c1ccccc1)c1ccccc1)NCCCCc1cccnc1` has an IC50 [1] of 100 nM.
Work on `COc1ccc(C(=C/C=C/C(=O)NC(C)(C)CCCc2cccnc2)c2ccc(OC)cc2)cc1` yielded an IC50 [1] of 85 nM.
Work on `O=C(/C=C/C=C(c1ccc(Cl)cc1)c1ccc(Cl)cc1)NCCCCc1cccnc1` yielded an IC50 [2] of 60 nM.
In the case of `COc1ccc(C(=C/C=C/C(=O)NCCCCc2cccnc2)c2ccc(OC)cc2)cc1`, the IC50 [1] is reported as 25 nM.
`CCCCCCCC/C(=C\C=C\C(=O)N[C@H](C)CCCc1cccnc1)c1ccc(OC)cc1` gave an IC50 [2] of 5 nM.
Work on `COc1cccc(C(=C/C=C/C(=O)N[C@H](C)CCCc2cccnc2)c2cccc(OC)c2)c1` yielded an IC50 [1] of 35 nM.
For `O=C(/C=C/C=C(c1cccc(F)c1)c1cccc(F)c1)NCCCCc1cccnc1`, the IC50 [1] was 20 nM.
In the case of `COc1ccc(/C(=C/C=C/C(=O)N[C@H](C)CCCc2cccnc2)C(C)C)cc1`, the IC50 [2] is reported as 40 nM.
In the case of `CC/C(=C\C=C\C(=O)N[C@H](C)CCCc1cccnc1)c1ccc(OC)cc1`, the IC50 [2] is reported as 30 nM.
`O=C(C=C(c1ccccc1)c1ccccc1)NCCCCc1cccnc1` gave an IC50 [1] of 450 nM.
In the case of `CC[C@@H](CCCc1cccnc1)NC(=O)/C=C/C=C(c1ccc(OC)cc1)c1ccc(OC)cc1`, the IC50 [2] is reported as 400 nM.
Compound `O=C(/C=C/C=C(c1ccc(F)cc1)c1ccc(F)cc1)NCCCCc1cccnc1` has an IC50 [1] of 40 nM.
With `O=C(CCCCC=C(c1ccccc1)c1ccccc1)NCCCCc1cccnc1` the IC50 [1] was 550 nM.
In the case of `COc1ccc(/C(=C/C=C/C(=O)N[C@H](C)CCCc2cccnc2)c2ccccc2)cc1`, the IC50 [1] is reported as 2 nM.
In the case of `COc1cccc(/C(=C/C=C/C(=O)NCCCCc2cccnc2)c2cccc(F)c2)c1`, the IC50 [2] is reported as 40 nM.
For `COc1ccc(C(=C/C=C/C(=O)Nc2ccc(-c3cccnc3)cc2)c2ccc(OC)cc2)cc1`, the IC50 [1] was 10 nM.
With `COc1cccc(C(=C/C=C/C(=O)N[C@@H](C)CCCc2cccnc2)c2cccc(OC)c2)c1` the IC50 [2] was 300 nM.
Compound `CC[C@H](CCCc1cccnc1)NC(=O)/C=C/C=C(c1ccc(OC)cc1)c1ccc(OC)cc1` has an IC50 [1] of 120 nM.
`COc1ccc(/C(=C\C=C\C(=O)N[C@H](C)CCCc2cccnc2)c2ccccc2)cc1` was tested, and the IC50 [2] was 4 nM.
Compound `COc1ccc(C(=C/C=C/C(=O)NCCCCc2cccnc2)c2ccc(OC)c(OC)c2)cc1OC` has an IC50 [1] of 55 nM.
